Data reported in patent publication US20220241247A1, “PHARMACOLOGICAL AGENTS FOR TREATING PROTEIN AGGREGATION DISEASES OF THE EYE” (PLEX PHARMACEUTICALS, INC., priority 2019, published 2022).
Read-outs that look alike come from different tables or passages of the source. Blank lines part the entries; values can stand above or below the molecule they belong to.

Key:
AAC [1] = target: T1, AAC (Homo sapiens, UniProt P02489); experiment: UV-induced aggregation of hAAC, measured by absorbance; assay type: biochemical
T1 sequence (P02489 1-173): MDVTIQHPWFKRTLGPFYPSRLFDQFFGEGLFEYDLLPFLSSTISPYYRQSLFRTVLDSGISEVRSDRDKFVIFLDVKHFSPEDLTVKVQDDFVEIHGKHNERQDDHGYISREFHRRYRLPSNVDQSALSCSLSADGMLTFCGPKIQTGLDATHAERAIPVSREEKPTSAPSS
Protocol: (§1) It was determined that CAP4349 protects hAAC from UV-induced aggregation in a concentration-dependent manner. The meglumine salt of Tafamidis (CAP4349-M) was tested for its ability to prevent hAAC aggregation using SDS/PAGE and absorbance.
In another study, hAAC, with or without CAP4349-M, was exposed to UV light for 60 minutes and the resulting aggregation was measured by absorbance. The results are shown in FIG. 1B in terms of mean percentage absorbance change±SD (n=3 or 4). The EC50 value, which is the half-maximal response of hAAC aggregation, was determined to be19.7(±1.4) μM.

AAC [2] = target: T1, AAC; experiment: UV-induced aggregation of hAAC, SDS-PAGE; assay type: biochemical; conditions: UV light 15 minutes; 0-1000 μM; 4-20% SDS-PAGE
Protocol: as §1
hAAC, with or without CAP4349-M (meglumine salt, 0-1000 μM), was exposed to UV light for 15 minutes and analyzed on a 4-20% gradient SDS-PAGE gel.

[3] = Drug bank value; cited from earlier work
AAC [4] = target: T1, AAC; experiment: Chaperone assay: heat and DTT-induced aggregation of lysozyme in presence of AAC; assay type: biochemical; conditions: AAC 250, lysozyme 500 μg/ml; 10 mM DTT, 37° C.; absorbance at 400 nm
Protocol: (§2) Post translational modification, due to UV light, oxidation, glycation, crosslinking, and proteolysis can affect the CLA of AAC and its ability to prevent the aggregation of target proteins. These modifications lead to aggregation of other lens crystallins, which culminate in the development of lens opacity and cataract development. Since CAP4349 prevents aggregation of hACC, the effect of CAP4349 on the CLA activity of AAC was evaluated using in vitro chaperone assays with (i) lysozyme as a model client protein, and (ii) bovine γ-crystallin (BGC), as a physiologically relevant lenticular protein.
Heat-induced aggregation of lysozyme: In the presence of a reducing agent (DTT) and heat (37° C.), lysozyme undergoes denaturation and aggregation. The CLA activity of AAC can protect lysozyme against heat and DTT-induced aggregation (Robey, R. L. et al. (1997), Journal of Heterocyclic Chemistry, 34: (2)413-428).

AAC [5] = target: T1, AAC; experiment: Chaperone assay: UV-induced aggregation of BGC in presence of AAC; assay type: biochemical; conditions: UV radiation
Protocol: as §2
UV-Induced Aggregation of BGC: Exposure to UV radiation is a contributing factor to cataract formation. […]
The aggregation reaction was initiated by exposing the reaction mixture to UVB radiation. Aggregation was monitored for changes in light scattering by measuring absorbance at 600 nm at t=0, 15, 30 and 45 minutes. Mean percentage absorbance±SD from triplicate or quadruplicate wells plotted on a graph (FIG. 2C). EC50 value was calculated as 64.8 (±1.3) […], which is the concentration of CAP4349-M concentration producing half-maximal response of BGC aggregation in presence of AAC.

[6] = system: HLE cell line SRA 01/04 cells; experiment: Heat-induced cell death of human lens epithelial cells; assay type: cell-based; conditions: pre-incubated 2 hours; 50° C. for 40 m
Source text: (§3) Efficacy of CAP4349 in protection of human lens epithelial cells from stress, as a measure of cellular AC function: Heating of intact human lenses dramatically promotes conversion of soluble AC into HMW aggregates and AC is responsible for protecting human lens epithelial (HLE) cells from thermal stress induced cell death (Peschek J et al. (2009), Proc. Natl. Acad. Sci. USA. 106(32):13272-13277). Survival of HLE cells following UV stress also depends on AC activity (Kumar P. et al., (2007) Biochem. J., 408:251-258). Assays for measuring cell-survival assays following heat or UV exposure were developed as a potential surrogate for AC chaperone activity. HLE cell line SRA 01/04 cells were pre-incubated for 2 hours with CAP4349 and then exposed to heat (50° C. for 40 m) or UV light (48 seconds).

[7] = system: HLE cell line SRA 01/04 cells; experiment: UV-induced cell death of human lens epithelial cells; assay type: cell-based; conditions: pre-incubated 2 hours; UV light 48 seconds
Source text: as §3

[8] = system: HLE cell line SRA 01/04 cells; experiment: Viability of human lens epithelial cells under normal conditions; assay type: cell-based; conditions: no stress
Source text: as §3, with “HLE cell line SRA 01/04 cells were pre-incubated for 2 hours with CAP4349 and then exposed to heat (50° C. for 40 m) or UV light (48 seconds).” left out

[9] = system: AAC(R116C)-GFP in HeLa cells; experiment: High-content assay for AAC aggregation (p62-positive inclusions); assay type: cell-based, human; conditions: GFP fluorescence
Protocol: Cellular effects of CAP4349 were evaluated using an automated high-content assay for AAC aggregation. AAC(R116C)-GFP has been reported to form p62 positive inclusions (p62 is known to co-localize with ubiquitinated aggregates in several protein aggregation diseases) (Neal R, et al. (2010) Mol. Vis. 16:2137-2145.). Experiments were carried out to determine whether CAP4349 had any effect on co-localization of AAC and p62 in HeLa cells.

[10] = system: bovine lens soluble extracts; experiment: UV-induced opacification of bovine lens lysate; assay type: biochemical; conditions: UV radiation
Source text: (§4) Both bovine and human lens lysates contain AAC as well as multiple endogenous client proteins, all of which are present at physiological ratios in a physiologically-relevant milieu of ions, redox pairs and antioxidants.

[11] = system: human lens soluble extracts; experiment: UV-induced opacification of human lens lysate; assay type: biochemical; conditions: UV radiation
Source text: as §4

porcine lenses = experiment: UV-induced opacification of porcine lenses ex vivo; conditions: pretreated with 125 μM
Protocol: Porcine lenses were pretreated with 125 μM CAP4349 (or vehicle) and UV irradiated (or not). Porcine lenses (Sierra for Medical Science, Inc., Whittier, CA) have been used previously in ex vivo models of cataracts (Raju, M. (2014) Biochemistry, 53(16):2615-2623.).

[12] = Estimated maximum concentration in the lens after topical ophthalmic dosing; conditions: meglumine formulated; topical ophthalmic bioavailability 2-5%
Source text: (§5) Therefore, in order to improve the aqueous solubility and bioavailability, the present disclosure provides prodrugs of CAP4349.

Solubility = assay type: physicochemical; conditions: for solubility: disodium salt
Protocol: as §5
To a solution of Tafamidis, CAP4349 (308 mg) in DMF (10 mL) was added K2CO3 (220 mg) and KI (132 mg) followed by di-tert-butyl chloromethyl phosphate at room temperature while stirring. The reaction mixture was stirred at 70° C. for two hours. The reaction was quenched with ice and extracted three times in Ethyl Acetate. The combined organic layer was washed with water followed by 1% aqueous solution of sodium thiosulfate, and lastly with Brine, yielding the intermediate t-butyl protected phosphate. The t-butyl protected phosphate intermediate was converted to disodium salt in two steps by cleaving the protecting group with TFA followed by NaHCO3 treatment in the presence of water and THF resulting in disodium salt of CAP4357, as a white solid.

[13] = versus meglumine salt of CAP4349

Compound: O=C(O)c1ccc2nc(-c3cc(Cl)cc(Cl)c3)oc2c1 [CAP4349-M]
- EC50 (AAC [1]; UV light 60 minutes, absorbance, n=3 or 4, read-out: EC50, half-maximal response of hAAC aggregation): 19.7 µM

Compound: CNC[C@H](O)[C@@H](O)[C@H](O)[C@H](O)CO.O=C(O)c1ccc2nc(-c3cc(Cl)cc(Cl)c3)oc2c1 [CAP4349-M]
- prevention of hAAC aggregation (band intensities of aggregated and non-aggregated form) (AAC [2]): dose-dependent prevention of hAAC aggregation
- maximum solubility [3]: 0.0323 mg/mL

Compound: O=C(O)c1ccc2nc(-c3cc(Cl)cc(Cl)c3)oc2c1 [CAP4349, 2-(3,5-dichlorophenyl) benzo[d]oxazole-6-carboxylic acid]
- EC50 (AAC [1]; read-out: EC50 for the prevention of hACC aggregation (as restated in Example 7)): 19.5 µM
- protection of lysozyme from aggregation by AAC (AAC [4]): increased protection of lysozyme from aggregation
- protection provided by AAC against UV-induced BGC aggregation (AAC [5]): increased the protection provided by AAC against UV-induced BGC aggregation in a dose-dependent manner
- protection from heat-induced cell death [6]: protects the cells from heat-induced and UV-induced cell death in a dose-dependent manner
- protection from UV-induced cell death [7]: protects the cells from heat-induced and UV-induced cell death in a dose-dependent manner
- viability under normal conditions [8]: does not alter the viability
- aggregates of AAC(R116C)-GFP co-localized with p62 [9]: decreased
- protection of bovine lysate from UV-induced opacification [10]: protected both bovine (FIG. 5A) and human (FIG. 5B) lysates from UV-induced opacification in a dose-dependent manner
- protection of human lysate from UV-induced opacification [11]: protected both bovine (FIG. 5A) and human (FIG. 5B) lysates from UV-induced opacification in a dose-dependent manner
- UV-induced opacification of porcine lenses (porcine lenses): prevent UV-induced opacification
- maximum concentration in the lens [12]: about 5 μM

- solubility (Solubility; aqueous with cosolvent or surfactant or cyclodextrin, 5% aqueous (2-Hydroxypropyl)-β-cyclodextrin, read-out: solubility in 5% aqueous HPBCD): 40 mg/mL
- solubility (Solubility; water, read-out: aqueous solubility): 25 mg/mL
- fold increase in HPBCD solubility (Solubility; [13]): 1,238 fold
- fold increase in aqueous solubility (Solubility; [13]): 774 fold
Compound: O=C(OCOP(=O)(O)O)c1ccc2nc(-c3cc(Cl)cc(Cl)c3)oc2c1.[Na+].[Na+] [CAP4357]
